# Key:
# Assay in all cases: Paper disk method, enhancing action for activities of azole antifungal agents
# Format in all cases: cell-based
# [1] = test system: Candida albicans ATCC 64548; conditions: 24 hours; for Inhibition activity (inhibition ring mm) C. albicans ATCC 64548 GYM / Transparency of the inhibition ring C. albicans ATCC 64548 GYM: miconazole 0.03 μg/ml; for Inhibition activity (inhibition ring mm) C. albicans ATCC 64548 GYF / Transparency of the inhibition ring C. albicans ATCC 64548 GYF: fluconazole 0.5 μg/ml
# Summary of the method: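 GY agar (pH 6.0) seeded with C. albicans ATCC 64548 precultured in Waksman broth at 27° C for 40 hours, supplemented with sub-growth-inhibitory miconazole 0.03 μg/ml or fluconazole 0.5 μg/ml. Paper disk method; inhibition-zone diameter (mm) read after 24 hours, transparency graded A–E.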
# [2] = test system: fluconazole resistant Candida albicans ATCC 64550; conditions: 24 hours; for Inhibition activity (inhibition ring mm) C. albicans ATCC 64550 GYF / Transparency of the inhibition ring C. albicans ATCC 64550 GYF: fluconazole 30 μg/ml; for Inhibition activity (inhibition ring mm) C. albicans ATCC 64550 GYM / Transparency of the inhibition ring C. albicans ATCC 64550 GYM: miconazole 0.15 μg/ml
# Method: Test organisms used were Candida albicans ATCC 64548, fluconazole resistant Candida albicans ATCC 64550 and Aspergillus niger ATCC 6275. Candida spp. were cultured in Waksman broth (glucose 2.0%, peptone 0.5%, dry yeast 0.3%, meat extract 0.5%, NaCl 0.5% and CaCO3 0.3%, pH 7.0) at 27° C. for 40 hours, then 0.1% thereof was inoculated on GY agar medium (glucose 1.0%, yeast extract 0.5% and agar 0.8%, pH 6.0). Spore suspension 0.2% of Aspergillus niger ATCC 6275 was inoculated on GY agar medium.
# Azole antifungal agents used were miconazole (Sigma Inc., the U.S.) and fluconazole (ICN Pharmaceuticals, Inc., the U.S.), and were added at concentrations without affecting growth on each test organisms follows.
# Candida albicans ATCC 64550: miconazole 0.15 μg/ml or fluconazole 30 μg/ml.
# In the above medium, a medium added with miconazole to GY medium (control) is designated as GYM, and a medium added with fluconazole is designated as GYF. Activities were assessed by means of paper disk method (thickness: 8 mm, ADVANTEC MFS INC., Japan). Diameter of inhibition ring is expressed with mm unit after culturing Candida spp. for 24 hours and Aspergillus niger ATCC 6275 for 48 hours. Transparency of the inhibition ring is assessed with 5 degrees of A, B, C, D and E (transparence<A<B<C<D<E<opaque).
# [3] = test system: Aspergillus niger ATCC 6275; conditions: 48 hours; for Inhibition activity (inhibition ring mm) A. niger ATCC 6275 GYF / Transparency of the inhibition ring A. niger ATCC 6275 GYF: fluconazole 10 μg/ml; for Inhibition activity (inhibition ring mm) A. niger ATCC 6275 GYM / Transparency of the inhibition ring A. niger ATCC 6275 GYM: miconazole 0.1 μg/ml; for Inhibition activity (inhibition ring mm) A. niger ATCC 6275 GY / Transparency of the inhibition ring A. niger ATCC 6275 GY: GY medium (control, no azole)
# Summary of the method: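 Paper-disk assay on A. niger ATCC 6275 spores (0.2%) seeded on GY agar pH 6.0. After 48 h, inhibition-zone diameter recorded in mm and transparency graded A (transparent) to E (opaque).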
SMILES,Inhibition activity (inhibition ring mm) C. albicans ATCC 64548 GYM ([1]; 10 μg/8 mm disk),Transparency of the inhibition ring C. albicans ATCC 64548 GYM ([1]; 10 μg/8 mm disk),Inhibition activity (inhibition ring mm) C. albicans ATCC 64548 GYF ([1]; 50 μg/8 mm disk),Transparency of the inhibition ring C. albicans ATCC 64548 GYF ([1]; 50 μg/8 mm disk),Inhibition activity (inhibition ring mm) C. albicans ATCC 64548 GYM ([1]; 50 μg/8 mm disk),Transparency of the inhibition ring C. albicans ATCC 64548 GYM ([1]; 50 μg/8 mm disk),Inhibition activity (inhibition ring mm) C. albicans ATCC 64550 GYF ([2]; 10 μg/8 mm disk),Transparency of the inhibition ring C. albicans ATCC 64550 GYF ([2]; 10 μg/8 mm disk),Inhibition activity (inhibition ring mm) C. albicans ATCC 64550 GYF ([2]; 50 μg/8 mm disk),Transparency of the inhibition ring C. albicans ATCC 64550 GYF ([2]; 50 μg/8 mm disk),Inhibition activity (inhibition ring mm) C. albicans ATCC 64550 GYM ([2]; 50 μg/8 mm disk),Transparency of the inhibition ring C. albicans ATCC 64550 GYM ([2]; 50 μg/8 mm disk),Inhibition activity (inhibition ring mm) A. niger ATCC 6275 GYF ([3]; 10 μg/8 mm disk),Transparency of the inhibition ring A. niger ATCC 6275 GYF ([3]; 10 μg/8 mm disk),Inhibition activity (inhibition ring mm) A. niger ATCC 6275 GY ([3]; 50 μg/8 mm disk),Transparency of the inhibition ring A. niger ATCC 6275 GY ([3]; 50 μg/8 mm disk),Inhibition activity (inhibition ring mm) A. niger ATCC 6275 GYF ([3]; 50 μg/8 mm disk),Transparency of the inhibition ring A. niger ATCC 6275 GYF ([3]; 50 μg/8 mm disk),Inhibition activity (inhibition ring mm) A. niger ATCC 6275 GYM ([3]; 50 μg/8 mm disk),Transparency of the inhibition ring A. niger ATCC 6275 GYM ([3]; 50 μg/8 mm disk),also measured
"CCC(OC(=O)c1ccccc1)C(C)(O)C1OC(=O)C(C)C(OC2CC(C)(OC)C(OC(=O)c3ccccc3)C(C)O2)C(C)C(OC2OC(C)CC(N(C)C)C2O)C2(C)CC(C)=C(O2)C1C (centres unmarked) [Compound 778, 4″,13-Di-O-benzoyl-8,9-Anhydro-pseudo-erythromycin A 6,9-hemiketal]",12 mm,B (Growth of test organism was inhibited 75% of more and 95% or less.),9 mm,D (Growth of test organism was inhibited 35% or more and 55% or less.),16 mm,A (Growth of test organism was inhibited 95% or more.),10 mm,E (Growth of test organism was inhibited 35% or less.),13 mm,B (Growth of test organism was inhibited 75% of more and 95% or less.),14 mm,B (Growth of test organism was inhibited 75% of more and 95% or less.),12 mm,E (Growth of test organism was inhibited 35% or less.),10 mm,E (Growth of test organism was inhibited 35% or less.),13 mm,D (Growth of test organism was inhibited 35% or more and 55% or less.),16 mm,A (Growth of test organism was inhibited 95% or more.),Inhibition activity (inhibition ring mm) A. niger ATCC 6275 GYM ([3]; 10 μg/8 mm disk): 14 mm; Transparency of the inhibition ring A. niger ATCC 6275 GYM ([3]; 10 μg/8 mm disk): E (Growth of test organism was inhibited 35% or less.)
"CCC(OC(=O)c1ccccc1)C(C)(O)C1OC(=O)C(C)C(OC2CC(C)(OC)C(O)C(C)O2)C(C)C(OC2OC(C)CC(N(C)C)C2O)C2(C)CC(C)=C(O2)C1C (centres unmarked) [Compound 779, 13-O -benzoyl-8,9-Anhydro-pseudoerythro-mycin A 6,9-hemiketal]",10 mm,E (Growth of test organism was inhibited 35% or less.),9 mm,D (Growth of test organism was inhibited 35% or more and 55% or less.),15 mm,A (Growth of test organism was inhibited 95% or more.),–,–,10 mm,E (Growth of test organism was inhibited 35% or less.),11 mm,D (Growth of test organism was inhibited 35% or more and 55% or less.),11 mm,E (Growth of test organism was inhibited 35% or less.),11 mm,E (Growth of test organism was inhibited 35% or less.),13 mm,D (Growth of test organism was inhibited 35% or more and 55% or less.),17 mm,E (Growth of test organism was inhibited 35% or less.),–
CCCCCC(=O)OC1C(C)OC(OC2C(C)C(=O)OC(C(C)(O)C(CC)OC(=O)CCCCC)C(C)C3=C(C)CC(C)(O3)C(OC3OC(C)CC(NC)C3O)C2C)CC1(C)OC (centres unmarked) [Compound 852],–,–,–,–,9 mm,A (Growth of test organism was inhibited 95% or more.),9 mm,C (Growth of test organism was inhibited 55% or more and 75% or less.),11 mm,A (Growth of test organism was inhibited 95% or more.),10 mm,B (Growth of test organism was inhibited 75% of more and 95% or less.),–,–,9 mm,E (Growth of test organism was inhibited 35% or less.),8 mm,D (Growth of test organism was inhibited 35% or more and 55% or less.),8 mm,C (Growth of test organism was inhibited 55% or more and 75% or less.),Inhibition activity (inhibition ring mm) C. albicans ATCC 64548 GYM ([1]; 100 μg/8 mm disk): 10 mm; Transparency of the inhibition ring C. albicans ATCC 64548 GYM ([1]; 100 μg/8 mm disk): A (Growth of test organism was inhibited 95% or more.); Inhibition activity (inhibition ring mm) C. albicans ATCC 64550 GYM ([2]; 10 μg/8 mm disk): 9 mm; Transparency of the inhibition ring C. albicans ATCC 64550 GYM ([2]; 10 μg/8 mm disk): C (Growth of test organism was inhibited 55% or more and 75% or less.); Inhibition activity (inhibition ring mm) C. albicans ATCC 64550 GYF ([2]; 100 μg/8 mm disk): 12 mm; Transparency of the inhibition ring C. albicans ATCC 64550 GYF ([2]; 100 μg/8 mm disk): A (Growth of test organism was inhibited 95% or more.); Inhibition activity (inhibition ring mm) C. albicans ATCC 64550 GYM ([2]; 100 μg/8 mm disk): 12 mm; Transparency of the inhibition ring C. albicans ATCC 64550 GYM ([2]; 100 μg/8 mm disk): B (Growth of test organism was inhibited 75% of more and 95% or less.); Inhibition activity (inhibition ring mm) A. niger ATCC 6275 GY ([3]; 100 μg/8 mm disk): 10 mm; Transparency of the inhibition ring A. niger ATCC 6275 GY ([3]; 100 μg/8 mm disk): E (Growth of test organism was inhibited 35% or less.); Inhibition activity (inhibition ring mm) A. niger ATCC 6275 GYF ([3]; 100 μg/8 mm disk): 9 mm; Transparency of the inhibition ring A. niger ATCC 6275 GYF ([3]; 100 μg/8 mm disk): D (Growth of test organism was inhibited 35% or more and 55% or less.); Inhibition activity (inhibition ring mm) A. niger ATCC 6275 GYM ([3]; 100 μg/8 mm disk): 9 mm; Transparency of the inhibition ring A. niger ATCC 6275 GYM ([3]; 100 μg/8 mm disk): A (Growth of test organism was inhibited 95% or more.)
